Legend:
[1] = system: melan-A cells; test: Melanin generation inhibition by measuring OD405 in melan-A melanocytes; type: cell-based; conditions: for Melanin generation rate (%): culture for three days, vs non-treated group = 100
Method: Melan-A melanocytes were provided by AmorePacific Co., Korea. Melan-A is the cell line producing melanin, which has been usually used for the examination of a whitening agent. For cell culture, RPMI1640 medium supplemented with 10% FBS, 1% penicillin/streptomycin, and 200 nM TPA was prepared and sterilized. The cells were cultured in a 37° C., 10% CO2 incubator. When the melan-A cells were grown to fill 90% of 100 mm Petri-dish, the cells were sub-cultured.
The cells were recovered by using trypsine-EDTA. 1N NaOH containing 10% DMSO (dimethylsulfoxide) was added to the recovered cells, followed by reaction at 80° C. for 1 hour to let melanin dissolved fully. Then, OD405 was measured using ELISA reader (VERSAmax, Molecular device, USA). Melanin generation was quantified by the following mathematical formula 1 (Table 1, FIGS. 4 and 5).
Melanin generation rate (%)=OD of treated group/OD of non-treated group×100 [Mathematical Formula 1]

[2] = system: melan-A cells; test: Cytotoxicity test (MTT, OD540) in Melan-A cells; type: cell-based; conditions: for Cell survival rate (%): Melan-A cells, MTT, three days, vs non-treated group = 100
Method: Upon completion of the culture, the medium was eliminated and 100 μl of MTT (3-(4,5-dimethythiazol-2-yl)-2,5-diphenyltetrazoliu,bromide) solution was added to each well of the plate, followed by reaction at 37° C. for 4 hours. Upon completion of the reaction, the solution was eliminated and 100 μl of DMSO was added to each well of the plate to lyse the stained cells. Then, OD540 was measured using ELISA reader. Cell survival rate was calculated by the following mathematical formula 2 (Table 2, FIGS. 4 and 5).
Cell survival rate (%)=(OD of treated group/OD of non-treated group)×100 [Mathematical Formula 2]

Row | SMILES | Melanin generation rate (%) ([1]; 50 uM) | Cell survival rate (%) ([2]; 50 uM) | Melanin generation rate (%) ([1]; 4.5 uM) | Melanin generation rate (%) ([1]; 9 uM) | Melanin generation (result in words) ([1]; compared with non-treated negative control (and positive control PTU for the compound)) | Cell survival rate (%) ([2]; 4.5 uM) | Cell survival rate (%) ([2]; 9 uM) | Cytotoxicity (result in words) ([2]; at a low concentration)
1 | NC(=S)Nc1ccccc1 [Phenylthiourea, phenylthiourea, reference compound] | 36.19% | 100.19% |  |  |  |  |  | 
2 | C/C=C\C#CC#C/C=C\C(=O)OC [(2Z,8Z)-matricaria acid methyl ester] |  |  | 36.37% | 26.92% | inhibited melanin generation at a lower concentration | 106.66% | 99.44% | no cytotoxicity was observed

Source: patent US20090214454A1, “METHOD FOR SKIN WHITENING USING (2Z, 8Z) - MATRICARIA ACID METHYL ESTER” (INHA-INDUSTRY PARTNERSHIP INSTITUTE, priority 2008, published 2009)
